These are literature values, as cited in patent US20180162913A1, “METHODS FOR PO[…] IMMUNE RESPONSE USING DEPOT-FORMING AND NON-DEPOT-FORMING VACCINES” (IMMUNOVACCINE TECHNOLOGIES INC., priority 2015, published 2018).

For the compound `O=P1(N(CCCl)CCCl)NCCCO1` (stereo not drawn) [Cyclophosphamide (CPA), N,N-bis(2-chloroethyl)-1,3,2-oxazaphosphinan-2-amine 2-oxide], the “bioavailability, intravenous infusion versus parenteral and oral administration” value (in vivo) is given as “little difference in bioavailability”. In addition, where the note is “patients”, the “Total systemic clearance of CPA and its metabolites” value was 5 to 9 h; the “peak plasma levels of the parent, variation between patients” value was 3 to 11 h.
